Source: PubChem BioAssay (NCI)
Values joined by “and” are separate entries in the source; they are usually repeats but may differ in a detail not shown here. Equal values may be shown once.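 1) Cells in 96-well plates. 2) Compound, 48 h, 5 concentrations. 3) Linear interpolation between surrounding doses. 4) Unreached endpoint = highest concentration. GI50: concentration for 50% inhibition of growth. At the TGI there is no net growth.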

Legend:
Assay in all cases: inhibition of tumour cell growth, NCI panel, 48 h
SF-295 CNS = tested on: SF-295 CNS
KM12 colon = tested on: KM12 colon
OVCAR-5 ovarian = tested on: OVCAR-5 ovarian
SNB-19 CNS = tested on: SNB-19 CNS
OVCAR-3 ovarian = tested on: OVCAR-3 ovarian
UACC-257 melanoma = tested on: UACC-257 melanoma
SK-OV-3 ovarian = tested on: SK-OV-3 ovarian
TK-10 renal = tested on: TK-10 renal
HCT-116 colon = tested on: HCT-116 colon
UACC-62 melanoma = tested on: UACC-62 melanoma
HT29 colon = tested on: HT29 colon
SW-620 colon = tested on: SW-620 colon
SN12C renal = tested on: SN12C renal
HL-60(TB) leukemia = tested on: HL-60(TB) leukemia

Row | Compound | TGI (SF-295 CNS) [µM] | TGI (KM12 colon) [µM] | TGI (OVCAR-5 ovarian) [µM] | TGI (SNB-19 CNS) [µM] | TGI (OVCAR-3 ovarian) | TGI (UACC-257 melanoma) | TGI (SK-OV-3 ovarian) [µM] | TGI (TK-10 renal) [µM] | TGI (HCT-116 colon) | TGI (UACC-62 melanoma) | TGI (HT29 colon) | TGI (SW-620 colon) | TGI (SN12C renal) [µM] | TGI (HL-60(TB) leukemia) | GI50 (KM12 colon) | GI50 (OVCAR-3 ovarian) [µM] | GI50 (HCT-116 colon) [µM] | GI50 (UACC-62 melanoma) | GI50 (SW-620 colon) [µM] | GI50 (SN12C renal)
1 | N#Cc1c(-c2cccc(Br)c2)cc(-c2ccc(Cl)cc2)nc1N | 35.5 | 60.4 | 65.2 | 40.1 | 77.3 µM | 38.2 µM | 56.6 | 45.2 | 34.8 µM | 29.2 µM | 39.2 µM | 36 µM | 35.9 | 69 µM | – | – | – | – | – | –
2 | COc1cccc(N2C(=O)CSC2c2c[nH]c3ccccc23)c1 (stereo unspecified) | > 100 | > 100 | > 100 | > 100 | > 100 µM | > 100 µM | > 100 | > 100 | > 100 µM | > 100 µM | > 100 µM | > 100 µM | > 100 | > 100 µM | – | – | – | – | – | –
3 | COC(=O)C1C(O)C(C)C(O)C(C)/C=C\C=C(C)C(=O)Nc2c(C)c(OC(C)=O)c3c(c2O)C(=O)C(C)=C2OCOC(=C23)C(C)=CC(C)(O)C(O)C(C)C1O (stereo unspecified) | > 100 | > 100 | > 100 | > 100 | > 72 µM and 64.2 µM | 55.7 µM and 62.5 µM | > 100 | > 100 | 49.6 µM and > 100 µM | 37.7 µM and > 100 µM | 40.2 µM and > 100 µM | 39.6 µM and > 100 µM | > 100 | 42.2 µM and > 100 µM | 25.1 µM and > 100 µM | 37.8 | 20.3 | 17 µM and > 100 µM | 20.1 | 49 µM and > 100 µM
4 | O=S(=O)(O)c1ccc(N=Nc2c(O)ccc3ccccc23)cc1 | > 100 | > 100 | > 100 | > 100 | > 100 µM | > 100 µM | > 100 | > 100 | > 100 µM | > 100 µM | > 100 µM | > 100 µM | > 100 | > 100 µM | – | – | – | – | – | –
5 | O=c1cnn(C/C=C/CP(=O)(O)O)c(=O)[nH]1 | – | > 100 | > 100 | > 100 | > 100 µM | > 100 µM | – | > 100 | – | – | – | > 100 µM | > 100 | > 100 µM | – | – | – | – | – | –
6 | CC[N+](C)(C)c1ccc(C(=C2C=CC(=[N+](C)C)C=C2)c2ccc(N(C)C)cc2)cc1 | 70.1 | 17.5 | > 100 | – | 22.5 µM | 28.6 µM | 55 | 97.6 | 19.5 µM | 29.7 µM | 30.6 µM | 52.1 µM | > 100 | 6 µM | – | – | – | – | – | –
7 | COc1cc2c(cc1C)NC(=O)/C2=C\c1cccnc1 | 35 | 35.6 | 31.8 | 40.4 | 33.6 µM | 28.4 µM | 43.9 | 31.7 | > 100 µM | – | > 100 µM | 84.8 µM | 37.8 | > 100 µM | – | – | – | – | – | –
8 | O=S(=O)(O)c1cc(S(=O)(=O)O)c2c(N=Nc3ccccc3)c(O)ccc2c1 | > 100 | > 100 | > 100 | > 100 | > 100 µM | > 100 µM | > 100 | > 100 | > 100 µM | > 100 µM | > 100 µM | > 100 µM | > 100 | – | – | – | – | – | – | –
9 | CC(C)OP(=O)(OC(C)C)c1nn(-c2ccc([N+](=O)[O-])cc2)c(=N)s1 | > 100 | > 100 | > 100 | > 100 | > 100 µM | > 100 µM | > 100 | > 100 | > 100 µM | > 100 µM | > 100 µM | > 100 µM | > 100 | > 100 µM | – | – | – | – | – | –
10 | COc1cccc2c1C(=O)c1c(O)c3c(c(O)c1C2=O)CC(O)(C(C)=O)CC3OC1CC([N+](C)(C)C)C(O)C(C)O1 (stereo unspecified) | > 100 | > 100 | > 100 | > 100 | > 100 µM | > 100 µM | > 100 | > 100 | > 100 µM | > 100 µM | > 100 µM | > 100 µM | > 100 | > 100 µM | – | – | – | – | – | –
11 | CC1=CC(=C(c2ccc(N)c(C)c2)c2ccc(N)c(C)c2)C=CC1=N | 11.7 | 12.8 | > 84.4 | 15.8 | 16.7 µM | 15.7 µM | 30.4 | > 66.2 | 13.3 µM | 10.2 µM | 15.6 µM | 17.7 µM | 4.31 | 17.5 µM | – | – | – | – | – | –
12 | OC12c3ccccc3C1CCCCCCCCCC21OCCCO1 (stereo unspecified) | > 100 | > 100 | > 100 | > 100 | > 100 µM | > 100 µM | > 100 | > 100 | > 100 µM | > 100 µM | > 100 µM | > 100 µM | > 100 | > 100 µM | – | – | – | – | – | –
13 | O=S(=O)(O)c1cccc2ccc(O)c(N=Nc3ccc(S(=O)(=O)c4ccc(N=Nc5c(O)ccc6cccc(S(=O)(=O)O)c56)cc4)cc3)c12 | > 100 | > 100 | > 100 | > 100 | > 100 µM | > 100 µM | > 100 | > 100 | > 100 µM | > 100 µM | > 100 µM | > 100 µM | > 100 | > 100 µM | – | – | – | – | – | –
14 | COC1C(=[N+]=[N-])C(=O)NC(=O)N1C1OC(COC(c2ccccc2)(c2ccccc2)c2ccccc2)C(O)C1O (stereo unspecified) | 37.4 | 30.5 | 31.7 | 34 | 32.9 µM | – | 49.6 | – | 34.9 µM | 30.5 µM | 35.3 µM | 35.8 µM | 32.7 | 46.7 µM | – | – | – | – | – | –
15 | CCC(C)C1=C(O)[N+]2([O-])Oc3ccc(-c4c(O)c(O)c(-c5ccc(O)cc5)c(OC(C)=O)c4OC(C)=O)cc3OC2(C(C)CC)C(=O)N1O (stereo unspecified) | > 50 | > 50 | > 50 | > 50 | > 50 µM | > 50 µM | > 50 | > 50 | > 50 µM | > 50 µM | > 50 µM | > 50 µM | > 50 | > 50 µM | – | – | – | – | – | –
